# Test results reported in PubChem BioAssay AID330 (DTP/NCI, 2004).
# Several values for one entry are separate records, joined by “and”; a condition that tells them apart may be missing. Identical values can stand only once. Inconclusive results and toxic doses are left out.
# System: P388 leukemia ip, CD2F1 mice, survival T/C
# Assay: NCI In Vivo Anticancer Drug Screen. Data for tumor model P388 Leukemia (intraperitoneal) in CD2F1 (CDF1) mice
# Settings: endpoint: median survival time, higher = longer survival
# Procedure, shortened: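 Mice carrying the transplanted tumor received test compound or vehicle. Survival was recorded in each group, and the value is the treated-group measurement divided by that of the vehicle-treated control group.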
# [1] = dose: 50.0 mg/kg/injection, schedule: Q01DX005 (ip), vehicle: saline with Tween-80
# [2] = dose: 100.0 mg/kg/injection, schedule: Q01DX005 (ip), vehicle: saline with Tween-80
# [3] = dose: 30.0 mg/kg/injection, schedule: Q01DX005 (ip), vehicle: saline
# [4] = dose: 60.0 mg/kg/injection, schedule: Q01DX005 (ip), vehicle: saline
# [5] = dose: 50.0 mg/kg/injection, schedule: Q01DX005 (ip), vehicle: Klucel (hydroxypropylcellulose) (HPC)
# [6] = dose: 100.0 mg/kg/injection, schedule: Q01DX005 (ip), vehicle: Klucel (hydroxypropylcellulose) (HPC)
# [7] = dose: 120.0 mg/kg/injection, schedule: Q01DX005 (ip), vehicle: saline
structure (smiles),measurement,setting,value
N/C=C1\Cc2ccccc2C1=O,T/C,"dose: 50.0 mg/kg/injection, schedule: Q01DX009 (ip), vehicle: suspension in saline",95 % of control
same,T/C,"dose: 100.0 mg/kg/injection, schedule: Q01DX009 (ip), vehicle: suspension in saline",98 % of control
same,T/C,"dose: 200.0 mg/kg/injection, schedule: Q01DX009 (ip), vehicle: suspension in saline",104 % of control
O/N=C1/C(=N/O)N(c2ccccc2)CCN1c1ccccc1,T/C,[1],99 % of control
same,T/C,[2],100 % of control
same,T/C,"dose: 200.0 mg/kg/injection, schedule: Q01DX005 (ip), vehicle: saline with Tween-80",92 % of control
CN(C)CCNC(=Cc1ccc2ccccc2[n+]1C)NCCN(C)C,T/C,[3],97 % of control
same,T/C,[4],101 % of control
CCCCCC(C1SC(=S)NC1=O)C1SC(=S)NC1=O (stereo not drawn),T/C,[1],90 % of control
same,T/C,[2],106 % of control
O=C1N2CCSC2=NC1(c1ccccc1)c1ccccc1,T/C,"dose: 25.0 mg/kg/injection, schedule: Q04DX003 (ip), vehicle: Klucel (hydroxypropylcellulose) (HPC)",100 % of control
same,T/C,"dose: 50.0 mg/kg/injection, schedule: Q04DX003 (ip), vehicle: Klucel (hydroxypropylcellulose) (HPC)",100 % of control
same,T/C,"dose: 100.0 mg/kg/injection, schedule: Q04DX003 (ip), vehicle: Klucel (hydroxypropylcellulose) (HPC)",93 % of control
same,T/C,"dose: 200.0 mg/kg/injection, schedule: Q04DX003 (ip), vehicle: Klucel (hydroxypropylcellulose) (HPC)",102 % of control
same,T/C,"dose: 400.0 mg/kg/injection, schedule: Q04DX003 (ip), vehicle: Klucel (hydroxypropylcellulose) (HPC)",100 % of control
COc1c(Cl)c2c(c(OC)c1OC)-c1ccc(OC)c(=O)cc1C(NC(C)=O)CC2 (stereo not drawn),T/C,"dose: 0.78 mg/kg/injection, schedule: Q01DX009 (ip), vehicle: Klucel (hydroxypropylcellulose) (HPC)",151 % of control
same,T/C,"dose: 1.56 mg/kg/injection, schedule: Q01DX009 (ip), vehicle: Klucel (hydroxypropylcellulose) (HPC)",179 % of control and 188 % of control
same,T/C,"dose: 3.12 mg/kg/injection, schedule: Q01DX009 (ip), vehicle: Klucel (hydroxypropylcellulose) (HPC)",199 % of control
CO/N=C/c1ccccc1C(=O)O,T/C,[5],100 % of control
same,T/C,[6],95 % of control
same,T/C,"dose: 200.0 mg/kg/injection, schedule: Q01DX005 (ip), vehicle: Klucel (hydroxypropylcellulose) (HPC)",99 % of control
O=C(CS)Nc1ccccn1,T/C,"dose: 12.5 mg/kg/injection, schedule: Q01DX009 (ip), vehicle: Klucel (hydroxypropylcellulose) (HPC)",104 % of control
same,T/C,"dose: 25.0 mg/kg/injection, schedule: Q01DX009 (ip), vehicle: Klucel (hydroxypropylcellulose) (HPC)",103 % of control
same,T/C,"dose: 50.0 mg/kg/injection, schedule: Q01DX009 (ip), vehicle: Klucel (hydroxypropylcellulose) (HPC)",103 % of control and 114 % of control
COc1cccc2c1C(=O)c1c(O)c3c(c(O)c1C2=O)C[C@@](O)(/C(C)=N/NC(=O)c1ccc(N(C)C)cc1)C[C@@H]3OC1CC(N)C(O)C(C)O1 (stereo partly drawn),T/C,"dose: 0.12 mg/kg/injection, schedule: Q01DX009 (ip), vehicle: water",94 % of control
same,T/C,"dose: 0.25 mg/kg/injection, schedule: Q01DX009 (ip), vehicle: water",111 % of control
same,T/C,"dose: 0.5 mg/kg/injection, schedule: Q01DX009 (ip), vehicle: water",150 % of control and 154 % of control
same,T/C,"dose: 1.0 mg/kg/injection, schedule: Q01DX009 (ip), vehicle: water",154 % of control and 164 % of control
same,T/C,"dose: 2.0 mg/kg/injection, schedule: Q01DX009 (ip), vehicle: water",164 % of control and 181 % of control
same,T/C,"dose: 4.0 mg/kg/injection, schedule: Q01DX009 (ip), vehicle: water",157 % of control and 172 % of control
same,T/C,"dose: 8.0 mg/kg/injection, schedule: Q01DX009 (ip), vehicle: water",86 % of control
same,T/C,"dose: 10.0 mg/kg/injection, schedule: Q01DX001 (ip), vehicle: water",159 % of control
same,T/C,"dose: 16.0 mg/kg/injection, schedule: Q01DX009 (ip), vehicle: water",89 % of control
same,T/C,"dose: 20.0 mg/kg/injection, schedule: Q01DX001 (ip), vehicle: water",166 % of control
same,T/C,"dose: 40.0 mg/kg/injection, schedule: Q01DX001 (ip), vehicle: water",115 % of control
O=c1c(O)c(-c2ccccc2)c1=O,T/C,"dose: 25.0 mg/kg/injection, schedule: Q01DX005 (ip), vehicle: Klucel (hydroxypropylcellulose) (HPC)",98 % of control
same,T/C,[5],100 % of control
same,T/C,[6],98 % of control
CN1CCc2nc(N)nc(-c3nc(N)nc4c3CN(C)CC4)c2C1,T/C,[4],100 % of control
same,T/C,[7],104 % of control
same,T/C,"dose: 240.0 mg/kg/injection, schedule: Q01DX005 (ip), vehicle: saline",106 % of control
COc1ccc2c(c1OC)OCC(CN(C)C)C2=O (stereo not drawn),T/C,"dose: 15.0 mg/kg/injection, schedule: Q01DX005 (ip), vehicle: saline",100 % of control and 102 % of control
same,T/C,[3],108 % of control and 111 % of control
same,T/C,[4],106 % of control and 110 % of control and 114 % of control
same,T/C,[7],114 % of control and 116 % of control
C(#Cc1c2ccccc2c(C#Cc2ccccc2)c2c1oc1c3ccccc3ccc12)c1ccccc1,T/C,"dose: 100.0 mg/kg/injection, schedule: Q04DX003 (ip), vehicle: saline with Tween-80",97 % of control
same,T/C,"dose: 200.0 mg/kg/injection, schedule: Q04DX003 (ip), vehicle: saline with Tween-80",97 % of control
same,T/C,"dose: 400.0 mg/kg/injection, schedule: Q04DX003 (ip), vehicle: saline with Tween-80",92 % of control
C=C(C)/C([O-])=N/[N+](C)(C)CC(O)CCCCCCCCCCCC (stereo not drawn),T/C,"dose: 1.25 mg/kg/injection, schedule: Q01DX009 (ip), vehicle: Klucel (hydroxypropylcellulose) (HPC)",104 % of control
same,T/C,"dose: 2.5 mg/kg/injection, schedule: Q01DX005 (ip), vehicle: Klucel (hydroxypropylcellulose) (HPC)",100 % of control
same,T/C,"dose: 2.5 mg/kg/injection, schedule: Q01DX009 (ip), vehicle: Klucel (hydroxypropylcellulose) (HPC)",96 % of control
same,T/C,"dose: 5.0 mg/kg/injection, schedule: Q01DX005 (ip), vehicle: Klucel (hydroxypropylcellulose) (HPC)",101 % of control
same,T/C,"dose: 10.0 mg/kg/injection, schedule: Q01DX005 (ip), vehicle: Klucel (hydroxypropylcellulose) (HPC)",100 % of control
same,T/C,"dose: 10.0 mg/kg/injection, schedule: Q01DX009 (ip), vehicle: Klucel (hydroxypropylcellulose) (HPC)",91 % of control
same,T/C,"dose: 20.0 mg/kg/injection, schedule: Q01DX005 (ip), vehicle: Klucel (hydroxypropylcellulose) (HPC)",101 % of control
same,T/C,"dose: 40.0 mg/kg/injection, schedule: Q01DX005 (ip), vehicle: Klucel (hydroxypropylcellulose) (HPC)",92 % of control
CN1CCN(CN2C(=O)C3C4C=CC(C3C2=O)C2C3C(=O)N(CN5CCN(C)CC5)C(=O)C3C42)CC1 (stereo not drawn),T/C,"dose: 6.25 mg/kg/injection, schedule: Q01DX009 (ip), vehicle: water",103 % of control
same,T/C,"dose: 7.5 mg/kg/injection, schedule: Q01DX005 (ip), vehicle: water",100 % of control
same,T/C,"dose: 7.5 mg/kg/injection, schedule: Q01DX009 (ip), vehicle: water",99 % of control
same,T/C,"dose: 12.5 mg/kg/injection, schedule: Q01DX009 (ip), vehicle: water",104 % of control
same,T/C,"dose: 15.0 mg/kg/injection, schedule: Q01DX005 (ip), vehicle: water",101 % of control and 96 % of control
same,T/C,"dose: 15.0 mg/kg/injection, schedule: Q01DX009 (ip), vehicle: water",105 % of control
same,T/C,"dose: 24.8 mg/kg/injection, schedule: Q01DX009 (ip), vehicle: water",113 % of control
same,T/C,"dose: 25.0 mg/kg/injection, schedule: Q01DX009 (ip), vehicle: saline",99 % of control
same,T/C,"dose: 25.0 mg/kg/injection, schedule: Q01DX009 (ip), vehicle: water",104 % of control
same,T/C,"dose: 26.8 mg/kg/injection, schedule: Q01DX009 (ip), vehicle: water",106 % of control and 118 % of control
same,T/C,"dose: 30.0 mg/kg/injection, schedule: Q01DX005 (ip), vehicle: water",107 % of control and 119 % of control
same,T/C,"dose: 30.0 mg/kg/injection, schedule: Q01DX009 (ip), vehicle: water",116 % of control and 121 % of control
same,T/C,"dose: 44.6 mg/kg/injection, schedule: Q01DX009 (ip), vehicle: water",151 % of control
same,T/C,"dose: 50.0 mg/kg/injection, schedule: Q01DX009 (ip), vehicle: saline",106 % of control
same,T/C,"dose: 60.0 mg/kg/injection, schedule: Q01DX005 (ip), vehicle: water",151 % of control
same,T/C,"dose: 60.0 mg/kg/injection, schedule: Q01DX009 (ip), vehicle: water",165 % of control and 161 % of control
same,T/C,"dose: 68.8 mg/kg/injection, schedule: Q01DX009 (ip), vehicle: water",172 % of control
same,T/C,"dose: 74.4 mg/kg/injection, schedule: Q01DX009 (ip), vehicle: water",164 % of control and 190 % of control
same,T/C,"dose: 100.0 mg/kg/injection, schedule: Q01DX009 (ip), vehicle: saline",211 % of control
same,T/C,"dose: 100.0 mg/kg/injection, schedule: Q01DX009 (ip), vehicle: water",200 % of control and 207 % of control
same,T/C,"dose: 120.0 mg/kg/injection, schedule: Q01DX009 (ip), vehicle: water",111 % of control
same,T/C,"dose: 124.0 mg/kg/injection, schedule: Q01DX009 (ip), vehicle: water",105 % of control
